Counter-ions that a name gives are not always drawn. Like-named read-outs stand apart in the source and are kept apart here.
Assays:
MUC1-fs = assay: Immunofluorescence imaging of MUC1-fs in P cells (Example 2); type: cell-based; details: for EC50: 48 hr incubation, MUC1-fs; for Emax / ECMax (%): 48 hr; for Emax: DMSO = 0, JQ1 = −100% activity, in %; for ECMax (%): DMSO = 0, JQ1 (250 nM) = −100% activity
Method: (§1) P cells were seeded 24 hr prior to compound treatment at a density of 12,000 cells/well in 384 well Cell Carrier Ultra plates (6057308, Perkin Elmer), pre-coated with 0.25 mg/mL Synthemax II SC Substrate (3535, Corning). Compounds were used at 5 doses (35, 3.5, 0.35, 0.035 and 0.0035 μM) for the primary screen and 10 doses (16, 5.6, 1.8, 0.6, 0.21, 0.07, 0.02, 0.008, 0.002 and 0.0008 μM) for the following screens. The compounds, in two replicates, were transferred from compound source plates to the cell plates using the HighRes Pin Tool. DMSO was used as a negative control and JQ1 (250 nM) (a bromodomain inhibitor) was chosen as a positive control, based on earlier studies showing its potent effect on reducing total MUC1 mRNA levels (data not shown). After 48 hr incubation, cells were fixed for 20 min in 4% PFA (Electron Microscopy Sciences) in PBS, washed twice, then permeabilized (10 min) with 0.5% Triton-X100 (X100-100ML, Sigma-Aldrich) in PBS and washed once more. Cells were blocked for 10 min at RT with Blocking solution (100 mM Tris HCL pH8; 150 mM NaCL; 5 g/L Blocking Reagent [11096176001, Roche]), then incubated 90 min at RT with one of the following primary antibodies in Roche Blocking solution: 1:500, monoclonal Fab-A-VSH anti-MUC1-fs, AbD22655.2, Bio-Rad; 1:2000, monoclonal mouse anti-MUC1 (214D4), 05-652-KC, Millipore; 1:1000, monoclonal, Rabbit anti-GM130 (D6B1) XP, 12480, Cell signaling technology. The primary antibody cocktail was incubated at RT for 1.5 hr, followed by four PBS wash cycles. The secondary antibody cocktail contained four components that were all prepared at a 1:1000 dilution in the Roche blocking solution and consisted of Alexa Fluor® 488-conjugated AffiniPure F(ab′)2 Fragment Goat anti-Human IgG, 109-546-097, Jackson Immunoresearch; Alexa Fluor® 647-conjugated Goat anti-Rabbit IgG, A-21246, Thermo Fisher Scientific®; Alexa Fluor® 546 Goat anti-mouse IgG, A-21123, Thermo Fisher Scientific® and Hoechst 33342 stain (62249, Thermo Fisher Scientific®). The secondary antibody cocktail was incubated at RT for 45 min, followed by four PBS wash cycles. Finally, plates were sealed with a Plate Loc plate and stored in Liconic incubator at 10° C. until imaging. Following image analysis, three parameters were selected, i) MUC1-fs and ii) MUC1-wt total cytoplasm intensity (averaged per cell) and iii) cell number as was detected by Hoechst 33342 stained nuclei. The levels of MUC1-fs and MUC1-wt found following DMSO and JQ1 were defined as 0 and −100% activity, respectively. The values obtained for all compounds were normalized accordingly. Cell number was normalized to DMSO control.

MUC1-wt = assay: Immunofluorescence imaging of MUC1-wt in P cells (Example 2); type: cell-based; details: for EC50: 48 hr incubation, MUC1-wt; for WT EMax / WT ECMax (%): 48 hr; for WT EMax: DMSO = 0, JQ1 = −100% activity, in %; for WT ECMax (%): DMSO = 0, JQ1 (250 nM) = −100% activity
Method: as §1

SMILES	EC50 (MUC1-fs; read-out: EC50) [µM]	Emax (MUC1-fs)	EC50 (MUC1-wt; read-out: WT EC50) [µM]	WT EMax (MUC1-wt)	Emax (MUC1-fs; hydrochloride)	WT EMax (MUC1-wt; hydrochloride)	EC50 (MUC1-fs; read-out: EC50(Spot)) [µM]	ECMax (%) (MUC1-fs)	EC50 (MUC1-wt; read-out: WT EC50 (Cytoplasm)) [µM]	WT ECMax (%) (MUC1-wt)
NC1C2CCC(C2)C12CC1CCC2C1 (racemic) [Compound 238-B, rac-2,2′-spirobi[bicyclo[2.2.1]heptan]-3-amine]	0.029	−106.4	5.6	40.7	–	–	–	–	–	–
CC1CCC2(CC1C)C1CCC(C1)C2N (racemic) [Compound 240, rac-3′,4′-dimethylspiro[bicyclo[2.2.1]heptane-2,1′-cyclohexan]-3-amine]	> 16	−34.8	> 16	−11.1	–	–	–	–	–	–
CC1(CC2CC2)C2CCC(C2)C1N.Cl (racemic) [Compound 243-A, rac-3-(cyclopropylmethyl)-3-methylbicyclo[2.2.1]heptan-2-amine hydrochloride]	> 16	–	> 16	–	−40.4	3.2	–	–	–	–
CC1(CC2CC2)C2CCC(C2)C1N.Cl (racemic) [Compound 244, rac-3-(cyclopropylmethyl)-3-methylbicyclo[2.2.1]heptan-2-amine hydrochloride]	> 16	–	> 16	–	−35.0	−9.0	–	–	–	–
CC(C)C1(C)C2CCC(C2)C1N.Cl (racemic) [Compound 245, rac-3-isopropyl-3-methylbicyclo[2.2.1]heptan-2-amine hydrochloride]	0.011	−90.2	4.5	106.2	–	–	–	–	–	–
Cl.NC1C2CCC(C2)C12CC=CC2 (racemic) [Compound 248, rac-spiro[bicyclo[2.2.1]heptane-2,1′-cyclopentan]-3′-en-3-amine hydrochloride]	0.11	−83.1	9.8	36.5	–	–	–	–	–	–
NC1C2CCC(C2)C12CCC(O)C2 (racemic) [Compound 249A, rac-3-aminospiro[bicyclo[2.2.1]heptane-2,1′-cyclopentan]-3′-ol]	2.2	−98.1	> 16	−7.2	–	–	–	–	–	–
NC1C2CCC(C2)C12CCC(O)C2 (racemic) [Compound 249B, rac-3-aminospiro[bicyclo[2.2.1]heptane-2,1′-cyclopentan]-3′-ol]	4.14	−72.5	> 16	−6.7	–	–	–	–	–	–
NC1C2CCC(C2)C12CCC(O)C2 (racemic) [Compound 249C, rac-3-aminospiro[bicyclo[2.2.1]heptane-2,1′-cyclopentan]-3′-ol]	6.38	−74.4	> 16	−11.9	–	–	–	–	–	–
Cl.NC1(c2ccccc2)C2CCC(C2)C12CCCC2 (racemic) [Compound 250, rac-3-phenylspiro[bicyclo[2.2.1]heptane-2,1′-cyclopentan]-3-amine hydrochloride]	7.83	−86.3	> 16	8.2	–	–	–	–	–	–
CC1(C)[C@H]2CC[C@H](C2)[C@H]1N (single isomer, unassigned) [Compound 201-P1, hydrochloride]	–	–	–	–	–	–	0.088	−94.91	10.3	63
CC1(C)[C@@H]2CC[C@@H](C2)[C@@H]1N (single isomer, unassigned) [Compound 201-P2, hydrochloride]	–	–	–	–	–	–	0.47	−85.5	11.9	68.51
CCC1(CC)[C@H]2CC[C@H](C2)[C@H]1N [Compound 204-P1]	–	–	–	–	–	–	0.03	−118.54	3.32	197.55
CCC1(CC)[C@@H]2CC[C@@H](C2)[C@@H]1N [Compound 204-P2]	–	–	–	–	–	–	0.02	−90.34	1.09	65.02
CCCCC1(C)C2CCC(C2)C1N (centres unmarked) [Compound 206-P2]	–	–	–	–	–	–	> 32	−10.5	> 32	−3.86
C[C@H]1CC[C@@]2(C1)[C@H]1CC[C@H](C1)[C@H]2N.Cl [Compound 210-P1-A]	–	–	–	–	–	–	26.9	−33.62	> 32	0.73
C[C@@H]1CC[C@@]2(C1)[C@H]1CC[C@H](C1)[C@H]2N.Cl [Compound 210-P1-B]	–	–	–	–	–	–	15.5	−26.85	> 32	−4.05
C[C@@H]1CC[C@]2(C1)[C@@H]1CC[C@@H](C1)[C@@H]2N.Cl [Compound 210-P2-A]	–	–	–	–	–	–	1.04	−62.63	> 32	−8.9
C[C@H]1CC[C@]2(C1)[C@@H]1CC[C@@H](C1)[C@@H]2N.Cl [Compound 210-P2-B]	–	–	–	–	–	–	0.1	−66.02	> 16	30.21
C[C@@H]1CC[C@]2(C1)[C@H]1CC[C@H](C1)[C@H]2N.Cl [Compound 211-P1-A]	–	–	–	–	–	–	1.22	−87.44	> 5.6	9.39
C[C@H]1CC[C@]2(C1)[C@H]1CC[C@H](C1)[C@H]2N.Cl [Compound 211-P1-B]	–	–	–	–	–	–	5	−61.55	> 32	9.31
C[C@H]1CC[C@@]2(C1)[C@@H]1CC[C@@H](C1)[C@@H]2N.Cl [Compound 211-P2-A]	–	–	–	–	–	–	20.1	−23.56	> 32	3.22
C[C@@H]1CC[C@@]2(C1)[C@@H]1CC[C@@H](C1)[C@@H]2N.Cl [Compound 211-P2-B]	–	–	–	–	–	–	> 32	−10.93	> 32	4.75
NC1C2CCC(C2)C12CCCCC2 [Compound 212-P1, (1R,3S,4S)-spiro[bicyclo[2.2.1]heptane-3,1′-cyclohexan]-2-amine]	–	–	–	–	–	–	1.57	−65.18	3.01	110.73
C[C@@H]1CCC[C@]2(C1)[C@H]1CC[C@H](C1)[C@H]2N.Cl [Compound 214-P1-A]	–	–	–	–	–	–	10.5	−26.27	> 32	3.96
C[C@H]1CCC[C@]2(C1)[C@H]1CC[C@H](C1)[C@H]2N.Cl [Compound 214-P1-B]	–	–	–	–	–	–	12.1	−58.73	> 32	−12.08
C[C@H]1CCC[C@@]2(C1)[C@@H]1CC[C@@H](C1)[C@@H]2N.Cl [Compound 214-P2-A]	–	–	–	–	–	–	24	−24.69	> 32	−7.57
C[C@@H]1CCC[C@@]2(C1)[C@@H]1CC[C@@H](C1)[C@@H]2N.Cl [Compound 214-P2-B]	–	–	–	–	–	–	15.1	−29.12	> 32	−4.96
CC[C@]1(Cc2ccccc2)[C@H]2CC[C@H](C2)[C@H]1N.Cl [Compound 219-P1, (1R,2R,3S,4S)-3-benzyl-3-ethylbicyclo[2.2.1]heptan-2-amine hydrochloride]	> 16	5.6	> 16	12.4	–	–	–	–	–	–

Reference: patent publication US11840495B2, “Compositions and methods related to di-substituted bicyclo[2.2.1] heptanamine-containing compounds” (The Broad Institute, Inc., priority 2020, dated 2023)
